Laboratory results: US11180486B2, “Indolylkojyl methane analogues, process of preparation thereof and use as inhibitor of cancer cells invasion and metastasis” (Council of Scientific & Industrial Research, priority 2017, dated 2021)
Where two headings read alike, the source gives them in different places.

Tests used:
MMP-2 = assay: Immunoblotting, expression of MMP-2; format: cell-based, human; settings: MDA-MB-231 cells; dose dependent
Procedure: (§1) Immunoblotting. MDA-MB-231 and MCF7 cells (0.5×10^6) were plated in six well plates for overnight in a humidified CO2 incubator and then exposed to varying concentrations of 5 (50, 100 and 200 nM) for 24 h along with vehicle (dose dependent study) and 200 nM of 5 for various time points like; 0, 6, 12, 24 and 48 h (time dependent study). Cells were then harvested, washed with chilled PBS and lysed with lysis buffer (HEPES 1 mM, KCl 60 mM, NP-40 0.3%, EDTA 1 mM, DTT 1 mM, sodium orthovanadate 1 mM, PMSF 0.1 mM and cocktail protease inhibitor). The cell extractions were centrifuged at 12,000 rpm for 10 min at 4° C. Protein concentration was measured by the standard Bradford method. An equal amount (20 μg) of protein from each sample was subjected to SDS-PAGE, and proteins were transferred to PVDF membranes (PALL), blocked with 5% (w/v) non-fat milk in PBS containing 0.1% Tween-20, probed with relevant antibodies (1:1000 dilution) for 3 h at room temperature or overnight at 4° C., and subsequently washed and probed with species-specific secondary antibodies coupled to horseradish peroxidase. Immunoreactive proteins were detected by Enhanced Chemiluminescence Plus (Thermo) (Rah et al., 2012, PloS one, 7(9), p.e44039.).

MDA-MB-231 cells [1] = assay: Drug potentiation, cell viability (MTT) assay; format: cell-based, human; settings: 200 nM 5 plus 200 nM doxorubicin (1:1), 48 h
Procedure: Drug Potentiation Assay. Briefly, MDA-MB-231 cells were exposed to 200 nM of compound 5, 200 nM of doxorubicin alone and/or combination of both (1:1 ratio) for 48 h in cell viability (MTT) assay, for 5 days in a colony formation assay and subjected to western blotting for the expression of GRP78 and Par-4. The ability of 5 to enhance cell killing was expressed as potentiation index (PI), which was the ratio of the […]. Thus, PI>1 indicates potentiation and PI<1 indicates protection.

MCF7 cells [2] = assay: Migration (wound closure) assay; format: cell-based, human; settings: after 48 h of incubation
Procedure: (§2) Migration Assay. The experiment was performed according to the pre-standardized procedure (Rah et al., 2012, PloS one, 7(9). p.e44039). MDA-MB-231 and MCF7 cells were plated in 6-well plates at a concentration of (1×10^6 cells/well) and allowed to form a confluent monolayer for 24 h. On the next day, the monolayer was scratched with a sterile pipette tip (20-200 μl) and washed with serum free medium to remove the detached cells. […] Wounded areas were progressively photographed under an inverted microscope with Nikon D3100 camera at 20× magnification. […]

MDA-MB-231 cells [3] = assay: Migration (wound closure) assay; format: cell-based, human; settings: after 48 h of incubation
Procedure: as §2

MCF7 cells [4] = assay: Matrigel invasion assay; format: cell-based; settings: Homo sapiens, 200 nM, 24 h, vs vehicle
Procedure: (§3) Matrigel Invasion Assay. The effect of compound 5 on invasion capability of breast cancer cells was evaluated using BD Biocoat Tumor Invasion Assay System (BD Bioscience, Bedford, Mass.) according to the manufacturer's instruction. Briefly, MDA-MB-231 and MCF7 cells (1×10^6) cells were cultured in the presence of 200 nM of compound 5, along with doxorubicin and vehicle for 24 h in serum free media in the upper chambers/inserts, and the bottom wells were filled with chemo-attractant (complete media with 10% FBS). Cells were allowed to migrate at 37° C. and 5% CO2. After 24 h, the matrigel-coated polycarbonate filters were removed, the non-migrating cells were separated from the upper chamber with a cotton swab and the inserts were fixed with methanol and stained with 0.25% crystal violet solution. For each replicate (n=3), migration of the cells was quantified by counting the stained cells (cells per five random fields) under an inverted microscope (Amin et al., 2015, Mol. Carcinog).

MDA-MB-231 cells [5] = assay: Matrigel invasion assay; format: cell-based; settings: Homo sapiens, 200 nM, 24 h, vs vehicle
Procedure: as §3

Par-4 = assay: Immunoblotting, expression of Par-4; format: cell-based, human
Procedure: as §1, with “An equal amount (20 μg) of protein from each sample was subjected to SDS-PAGE, and proteins were transferred to PVDF membranes (PALL), blocked with 5% (w/v) non-fat milk in PBS containing 0.1% Tween-20, probed with relevant antibodies (1:1000 dilution) for 3 h at room temperature or overnight at 4° C., and subsequently washed and probed with species-specific secondary antibodies coupled to horseradish peroxidase.” left out
Drug Potentiation Assay. […] The ability of 5 to enhance cell killing was expressed as potentiation index (PI), which was the ratio of the % inhibition of 5 alone at the given dose and the % inhibition in combination with doxorubicin. […]

MCF7 cells [6] = assay: Cell viability (MTT) assay; format: cell-based; settings: Homo sapiens
Procedure: (§4) Cell Culture and Reagents. The cell lines used in this study were procured from American Type Culture Collection (ATCC), Manassas, USA. MCF7, T47D and fR2 cells were cultured in RPMI-1640 medium, whereas the MDA-MB-231 cells were grown in Leibovitz's (L-15) medium supplemented with 10% fetal bovine serum (Gibco) and 1% penicillin/streptomycin (Sigma) in a humidified CO2 incubator (New Brunswick Galaxy 170 R) with 5% CO2. Reagents such as phenylmethylsulfonyl fluoride (PMSF), dithiothreitol (DTT), DMSO, crystal violet, and Bradford's reagent were purchased from Sigma-Aldrich. Protease inhibitor cocktail was procured from Roche. The antibodies for human GRP78, Par-4, MMP-2, MMP-9, NF-kB, E-cadherin and TIMP-1 were procured from Santa-Cruz Biotechnology. The β-actin antibody and the secondary antibodies such as anti-rabbit IgG and anti-mouse IgG were procured from Sigma-Aldrich.
(§5) Cell Viability Assay. The cell viability was determined by standard MTT assay method. Briefly, MDA-MB-231, MCF7, T47D and fR2 cells were seeded in 96 well tissue culture plates (Nunc) at a density of 3×10^3 cells per well and treated with varying concentrations of the test compounds in triplicates. DMSO was taken as a vehicle and the final concentration of the DMSO was maintained at 0.2% in the culture medium. Doxorubicin was employed as a positive control. After 44 h of incubation, MTT dye solution was added into the medium and cells were incubated for another 4 h at 37° C. in 5% CO2. The amount of coloured formazan derivatives formed was measured by taking optical density (OD) using a microplate reader (TECAN, Infinite M200 Pro) at 570 nm and the percentage cell viability was calculated. The IC50 values were calculated using GraphPad Prism software (Version 5.0). Table 2. Cytotoxicity (IC50) of all synthesized compounds of invention against panel of human breast cancer cell lines (MDA-MB-231, MCF7, T47D) and normal breast epithelial (fR2) cells.

MDA-MB-231 cells [7] = assay: Cell viability (MTT) assay; format: cell-based; settings: Homo sapiens
Procedure: as §4, §5

T47D cells = assay: Cell viability (MTT) assay; format: cell-based; settings: Homo sapiens, 44 h + 4 h, mean ± SD of three experiments
Procedure: as §4, §5

Question: What does the source list for CCCCCCCC(c1oc(CO)cc(=O)c1O)c1c[nH]c2ccccc12 (centres unmarked) [Compound 5, 2-{1-(1H-indol-3-yl)octyl}-3-hydroxy-6-(hydroxymethyl)-4H-pyran-4-one]?
Answer: expression of MMP-2 (MMP-2): downregulated; potentiation index (PI) (MDA-MB-231 cells [1]): 3.1; suppressed migration (MCF7 cells [2]): 55.4%; suppressed migration (MDA-MB-231 cells [3]): 57.3%; inhibition at 0.2 µM (MCF7 cells [4]): 79%; inhibition at 0.2 µM (MDA-MB-231 cells [5]): 67%; increase in the expression of Par-4 (Par-4; MDA-MB-231, 5 and doxorubicin in combination, 24 h, vs each alone, densitometry): 5.8 fold; expression of Par-4 (Par-4; MDA-MB-231 cells, dose dependent): induced significantly; IC50 (MCF7 cells [6]; MCF7, 44 h + 4 h, mean ± SD of three experiments, read-out: IC50 values MCF7): 150 ± 95 nM; IC50 (MCF7 cells [6]; MCF7, read-out: IC50 in MCF7): 150 nM; IC50 (MDA-MB-231 cells [7]; MDA-MB-231, 44 h + 4 h, mean ± SD of three experiments, read-out: IC50 values MDA-MB-231): 209 ± 265 nM; IC50 (MDA-MB-231 cells [7]; MDA-MB-231, read-out: IC50 in MDA-MB-231): 209 nM; IC50 (T47D cells): 3.45 µM; IC50 (T47D cells; 48 h): 3.45 µM
